Measured values as given in patent publication US12024531B2, “Immunoproteasome inhibitors” (Principia Biopharma Inc., priority 2017, dated 2024).
pIC50: −log10 of the molar value.

How the values were obtained:
Format in all cases: biochemical
[1] = target: immunoproteasome LMP2 subunit (Homo sapiens, UniProt P28065); assay: Caliper-based proteasome enzymatic activity assay, LMP2; conditions: human recombinant immunoproteasome 0.3 nM, FAM peptide substrate 1 μM, rt 2 h
[2] = target: constitutive proteasome β5c subunit (Homo sapiens, UniProt P28074); assay: Caliper-based proteasome enzymatic activity assay, β5c; conditions: human recombinant constitutive proteasome 0.3 nM, FAM peptide substrate 1 μM, rt 3 h
[3] = target: immunoproteasome LMP7/B5i subunit (Homo sapiens, UniProt P28062); assay: Caliper-based proteasome enzymatic activity assay, LMP7; conditions: human recombinant immunoproteasome 0.3 nM, FAM peptide substrate 1 μM, rt 3 h

Row | Compound | pIC50 [1] | pIC50 [2] | pIC50 [3]
1 | N#CC(=Cc1cccc(CCNC(=O)N[C@@H](Cc2ccccc2)B(O)O)c1)c1ccccn1 [Example 62, (R)-(1-(3-(3-(2-cyano-2-(pyridin-2-yl)vinyl)phenethyl)ureido)-2-phenylethyl)boronic Acid] | < 5.30 | < 5.30 | 6.73
2 | N#CC(=Cc1cccc(CCOC(=O)N[C@@H](Cc2ccccc2)B(O)O)c1)c1ccccn1 [Example 36, (R)-(1-(((3-(2-cyano-2-(pyridin-2-yl)vinyl)phenethoxy)carbonyl)amino)-2-phenylethyl)boronic Acid] | 5.45 | 6.49 | 8.10
3 | CC(C)N(C(=O)C(C#N)=Cc1cccc(CCOC(=O)N[C@@H](Cc2ccccc2)B(O)O)c1)C(C)C (single isomer, unassigned) [Example 75] | 5.60 | 5.52 | 8.85
4 | Cc1ccc(C[C@H](NC(=O)OCCc2cccc(C=C(C#N)C(=O)N3[C@@H](C)COC[C@@H]3C)c2)B(O)O)cc1 [Example 92, ((R)-1-(((3-(2-cyano-3-((3S,5S)-3,5-dimethylmorpholino)-3-oxoprop-1-en-1-yl)phenethoxy)carbonyl)amino)-2-(p-tolyl)ethyl)boronic Acid] | < 5.30 | 6.27 | 9.22
5 | CN(C)C(=O)C(C#N)=Cc1cccc(CCOC(=O)N[C@@H](Cc2coc3ccccc23)B(O)O)c1 [Example 53, (R)-(2-(benzofuran-3-yl)-1-(((3-(2-cyano-3-(dimethylamino)-3-oxoprop-1-en-1-yl)phenethoxy)carbonyl)amino)ethyl)boronic Acid] | < 5.30 | 6.67 | 9.00
6 | Cc1ccc(C[C@H](NC(=O)OCCc2cccc(C=C(C#N)C(=O)N3[C@H](C)COC[C@H]3C)c2)B(O)O)cc1 [Example 85, ((R)-1-(((3-(2-cyano-3-((3R,5R)-3,5-dimethylmorpholino)-3-oxoprop-1-en-1-yl)phenethoxy)carbonyl)amino)-2-(p-tolyl)ethyl)boronic Acid] | < 5.30 | 5.93 | 8.96
7 | CCN(C(=O)C(C#N)=Cc1cccc(CCOC(=O)N[C@@H](Cc2ccccc2)B(O)O)c1)C(C)(C)C [Example 69, (R)-(1-(((3-(3-(tert-butyl(ethyl)amino)-2-cyano-3-oxoprop-1-en-1-yl)phenethoxy)carbonyl)amino)-2-phenylethyl)boronic Acid] | 5.50 | 5.52 | 8.66
8 | Cc1ccc(C[C@H](NC(=O)CCOc2cccc(C=C(C#N)C(=O)N(C)C)c2)B(O)O)c(C)c1 [Example 44, (R)-(1-(3-(3-(2-cyano-3-(dimethylamino)-3-oxoprop-1-en-1-yl)phenoxy)propanamido)-2-(2,4-dimethylphenyl)ethyl)boronic Acid] | 5.50 | 6.41 | 8.68
9 | CN(C)C(=O)C(C#N)=Cc1cccc(COCC(=O)N[C@@H](Cc2ccccc2)B(O)O)c1 [Example 49, (R)-(1-(2-((3-(2-cyano-3-(dimethylamino)-3-oxoprop-1-en-1-yl)benzyl)oxy)acetamido)-2-phenylethyl)boronic Acid] | 5.54 | 5.95 | 8.31
10 | Cc1ccc(C[C@H](NC(=O)NCCc2cccc(C=C(C#N)c3ccccn3)c2)B(O)O)cc1 [Example 77, (R)-(1-(3-(3-(2-cyano-2-(pyridin-2-yl)vinyl)phenethyl)ureido)-2-(p-tolyl)ethyl)boronic Acid] | < 5.30 | 5.67 | 7.38
11 | Cc1ccc(C[C@H](NC(=O)OCCc2cccc(C=C(C#N)c3ccccn3)c2)B(O)O)cc1 [Example 57, (R)-(1-(((3-(2-cyano-2-(pyridin-2-yl)vinyl)phenethoxy)carbonyl)amino)-2-(p-tolyl)ethyl)boronic Acid] | < 5.30 | 6.73 | 8.74
12 | Cc1ccc(C[C@H](NC(=O)OCCc2cccc(C=C(C#N)c3ncccn3)c2)B(O)O)cc1 [Example 87, (R)-(1-(((3-(2-cyano-2-(pyrimidin-2-yl)vinyl)phenethoxy)carbonyl)amino)-2-(p-tolyl)ethyl)boronic Acid] | < 5.30 | 6.71 | 8.80
13 | CCN(C(=O)C(C#N)=Cc1cccc(CCOC(=O)N[C@@H](Cc2ccc(C)cc2)B(O)O)c1)C1CCOCC1 [Example 88, (R)-(1-(((3-(2-cyano-3-(ethyl(tetrahydro-2H-pyran-4-yl)amino)-3-oxoprop-1-en-1-yl)phenethoxy)carbonyl)amino)-2-(p-tolyl)ethyl)boronic Acid] | < 5.30 | 6.10 | 8.92
14 | CCN(CC)C(=O)C(C#N)=Cc1cccc(CCNC(=O)N[C@@H](Cc2ccc(C)cc2)B(O)O)c1 [Example 82, (R)-(1-(3-(3-(2-cyano-3-(diethylamino)-3-oxoprop-1-en-1-yl)phenethyl)ureido)-2-(p-tolyl)ethyl)boronic Acid] | < 5.30 | < 5.30 | 7.62
15 | Cn1cnc(C(C#N)=Cc2cccc(CCOC(=O)N[C@@H](Cc3ccccc3)B(O)O)c2)cc1=O [Example 84, (R)-(1-(((3-(2-cyano-2-(1-methyl-6-oxo-1,6-dihydropyrimidin-4-yl)vinyl)phenethoxy)carbonyl)amino)-2-phenylethyl)boronic Acid] | 5.70 | 6.62 | 8.72

More lines, in order of rising pIC50 [1], values ahead:

Row | pIC50 [1] | pIC50 [2] | pIC50 [3] | Compound
16 | 5.70 | 5.72 | 7.18 | N#CC(=Cc1cccc(CCNC(=O)N[C@@H](Cc2ccccc2)B(O)O)c1)c1ccc(C(F)(F)F)cn1 [Example 73, (R)-(1-(3-(3-(2-cyano-2-(5-(trifluoromethyl)pyridin-2-yl)vinyl)phenethyl)ureido)-2-phenylethyl)boronic Acid]
17 | 5.75 | 6.36 | 8.42 | N#CC(=Cc1cccc(CCOC(=O)N[C@@H](Cc2ccccc2)B(O)O)c1)c1ccc(C(F)(F)F)cn1 [Example 56, (R)-(1-(((3-(2-cyano-2-(5-(trifluoromethyl)pyridin-2-yl)vinyl)phenethoxy)carbonyl)amino)-2-phenylethyl)boronic Acid]
18 | 6.49 | 6.87 | 7.85 | N#CC(=Cc1ccc(Cl)c(OCCC(=O)N[C@@H](Cc2ccccc2)B(O)O)c1Cl)c1ccccn1 [Example 39, (R)-(1-(3-(2,6-dichloro-3-(2-cyano-2-(pyridin-2-yl)vinyl)phenoxy)propanamido)-2-phenylethyl)boronic Acid]
19 | 6.49 | 6.75 | 8.39 | CN(C)C(=O)C(C#N)=Cc1cc(F)cc(OCCC(=O)N[C@@H](Cc2ccccc2)B(O)O)c1 [Example 41, (R)-(1-(3-(3-(2-cyano-3-(dimethylamino)-3-oxoprop-1-en-1-yl)-5-fluorophenoxy)propanamido)-2-phenylethyl)boronic Acid]
20 | 6.51 | 7.47 | 8.40 | COc1ccc(C=C(C#N)C(=O)N(C)C)cc1OCCC(=O)N[C@@H](Cc1ccccc1)B(O)O [Example 26, (R)-(1-(3-(5-(2-cyano-3-(dimethylamino)-3-oxoprop-1-en-1-yl)-2-methoxyphenoxy)propanamido)-2-phenylethyl)boronic Acid]
21 | 6.51 | 6.91 | 7.69 | COc1cccnc1C(C#N)=Cc1cccc(OCCC(=O)N[C@@H](Cc2ccccc2)B(O)O)c1 [Example 51, (R)-(1-(3-(3-(2-cyano-2-(3-methoxypyridin-2-yl)vinyl)phenoxy)propanamido)-2-phenylethyl)boronic Acid]
22 | 6.65 | 6.79 | 8.14 | CN(C)C(=O)C(C#N)=Cc1ccc(Cl)c(OCCC(=O)N[C@@H](Cc2ccccc2)B(O)O)c1Cl [Example 38, (R)-(1-(3-(2,6-dichloro-3-(2-cyano-3-(dimethylamino)-3-oxoprop-1-en-1-yl)phenoxy)propanamido)-2-phenylethyl)boronic Acid]
23 | 6.74 | 7.22 | 8.40 | N#CC(=Cc1cccc(OCCC(=O)N[C@@H](Cc2ccccc2)B(O)O)c1)C(=O)N1CCN(C2COC2)CC1 [Example 32, (R)-(1-(3-(3-(2-cyano-3-(4-(oxetan-3-yl)piperazin-1-yl)-3-oxoprop-1-en-1-yl)phenoxy)propanamido)-2-phenylethyl)boronic Acid]
24 | 6.80 | 7.60 | 8.52 | CN(C)C(=O)C(C#N)=Cc1ccc(F)c(OCCC(=O)N[C@@H](Cc2ccccc2)B(O)O)c1 [Example 27, (R)-(1-(3-(5-(2-cyano-3-(dimethylamino)-3-oxoprop-1-en-1-yl)-2-fluorophenoxy)propanamido)-2-phenylethyl)boronic Acid]
25 | 6.91 | 7.40 | 8.54 | N#CC(=Cc1cc(OCCC(=O)N[C@@H](Cc2ccccc2)B(O)O)ccc1F)c1ccccn1 [Example 43, (R)-(1-(3-(3-(2-cyano-2-(pyridin-2-yl)vinyl)-4-fluorophenoxy)propanamido)-2-phenylethyl)boronic Acid]
26 | 6.92 | 7.10 | 8.10 | N#CC(=Cc1cccc(OCCC(=O)N[C@@H](Cc2ccccc2)B(O)O)c1)c1ncccc1F [Example 34, (R)-(1-(3-(3-(2-cyano-2-(3-fluoropyridin-2-yl)vinyl)phenoxy)propanamido)-2-phenylethyl)boronic Acid]
27 | 7.00 | 7.02 | 8.30 | N#CC(=Cc1cccc(OCCC(=O)N[C@@H](Cc2ccccc2)B(O)O)c1)c1ccc(C(F)(F)F)cn1 [Example 33, (R)-(1-(3-(3-(2-cyano-2-(5-(trifluoromethyl)pyridin-2-yl)vinyl)phenoxy)propanamido)-2-phenylethyl)boronic Acid]
28 | 7.77 | 7.44 | 8.22 | COc1ccc(C=C(C#N)c2ccccn2)cc1OCCC(=O)N[C@@H](Cc1ccccc1)B(O)O [Example 29, (R)-(1-(3-(5-(2-cyano-2-(pyridin-2-yl)vinyl)-2-methoxyphenoxy)propanamido)-2-phenylethyl)boronic Acid]
